Data taken from ChEMBL document CHEMBL1201862, “PubChem BioAssay data set” (2004).
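Briefly, cells in 96-well plates were exposed to five compound concentrations for 48 h, and endpoints were estimated by linear interpolation. The concentration for 50% growth inhibition is given as GI50.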 Activity calls are given as the source filed them. Rule as the data show it: active = GI50 up to about 1.1 µM and inactive = higher.

Experiments:
Assay in all cases: NCI anticancer screen, dose series, 48 h
786-0 = test system: 786-0
A549 = test system: A549
ACHN = test system: ACHN
CAKI-1 = test system: CAKI-1
CCRF-CEM = test system: CCRF-CEM
DLD-1 = test system: DLD-1
DMS-114 = test system: DMS-114
EKVX = test system: EKVX
HCC 2998 = test system: HCC 2998
HCT-116 = test system: HCT-116
HCT-15 = test system: HCT-15
HL-60 = test system: HL-60
HOP-18 = test system: HOP-18
HOP-62 = test system: HOP-62
HOP-92 = test system: HOP-92
HT-29 = test system: HT-29
IGROV-1 = test system: IGROV-1
K562 = test system: K562
KM12 = test system: KM12
LOX IMVI = test system: LOX IMVI
LXFL 529 = test system: LXFL 529
M14 = test system: M14
M19-MEL = test system: M19-MEL
MOLT-4 = test system: MOLT-4
Malme-3M = test system: Malme-3M
NCI-H226 = test system: NCI-H226
NCI-H23 = test system: NCI-H23
NCI-H460 = test system: NCI-H460
NCI-H522 = test system: NCI-H522
OVCAR-3 = test system: OVCAR-3
OVCAR-4 = test system: OVCAR-4
OVCAR-5 = test system: OVCAR-5
OVCAR-8 = test system: OVCAR-8
RPMI-8226 = test system: RPMI-8226
RXF 393 = test system: RXF 393
RXF 631 = test system: RXF 631
SF-268 = test system: SF-268
SF-295 = test system: SF-295
SF-539 = test system: SF-539
SK-MEL-28 = test system: SK-MEL-28
SK-MEL-2 = test system: SK-MEL-2
SK-MEL-5 = test system: SK-MEL-5
SK-OV-3 = test system: SK-OV-3
SN12C = test system: SN12C
SNB-19 = test system: SNB-19
SNB-78 = test system: SNB-78
SR = test system: SR
SW-620 = test system: SW-620
TK-10 = test system: TK-10
U-251 = test system: U-251
UACC-257 = test system: UACC-257
UACC-62 = test system: UACC-62
UO-31 = test system: UO-31
XF498 = test system: XF498
A498 = test system: A498
DMS-273 = test system: DMS-273
KM-20L2 = test system: KM-20L2
SNB-75 = test system: SNB-75
COLO 205 = test system: COLO 205

Measured: GI50

CC1=C(C(=O)CC(=O)C(=O)Nc2cccc(Cl)c2C)Sc2ccccc2N1
inactive: 786-0 > 100 µM | A549 > 100 µM | ACHN > 100 µM | CAKI-1 > 100 µM | CCRF-CEM > 100 µM | DLD-1 > 100 µM | DMS-114 > 100 µM | EKVX > 100 µM | HCC 2998 > 100 µM | HCT-116 > 100 µM | HL-60 > 100 µM | HOP-18 > 100 µM | HOP-62 > 100 µM | HOP-92 > 100 µM | HT-29 > 100 µM | IGROV-1 > 100 µM | K562 > 100 µM | KM12 > 100 µM | LOX IMVI > 100 µM | LXFL 529 > 100 µM | M14 > 100 µM | M19-MEL > 100 µM | MOLT-4 > 100 µM | Malme-3M > 100 µM | NCI-H226 > 100 µM | NCI-H23 > 100 µM | NCI-H460 > 100 µM | NCI-H522 > 100 µM | OVCAR-3 > 100 µM | OVCAR-4 > 100 µM | OVCAR-5 > 100 µM | OVCAR-8 > 100 µM | RPMI-8226 > 100 µM | RXF 393 > 100 µM | RXF 631 > 100 µM | SF-268 > 100 µM | SF-295 > 100 µM | SF-539 > 100 µM | SK-MEL-28 > 100 µM | SK-MEL-2 > 100 µM | SK-MEL-5 > 100 µM | SK-OV-3 > 100 µM | SN12C > 100 µM | SNB-19 > 100 µM | SNB-78 > 100 µM | SR > 100 µM | SW-620 > 100 µM | TK-10 > 100 µM | U-251 > 100 µM | UACC-257 > 100 µM | UACC-62 > 100 µM | UO-31 > 100 µM | XF498 > 100 µM
> 100 µM: HCT-15

S=c1nc(N2CCCCC2)ss1
inactive: 786-0 20.9 µM | A498 20.2 µM | A549 28.4 µM | ACHN 27 µM | CAKI-1 27.7 µM | CCRF-CEM 11.7 µM | DLD-1 26.7 µM | DMS-114 19.7 µM | DMS-273 17.5 µM | EKVX 24.2 µM | HCC 2998 16.2 µM | HCT-116 17.7 µM | HL-60 13.5 µM | HOP-18 40.6 µM | HOP-62 26.7 µM | HOP-92 17.5 µM | HT-29 28.8 µM | IGROV-1 25.1 µM | K562 18.4 µM | KM-20L2 > 100 µM | KM12 17.2 µM | LXFL 529 15.1 µM | M14 20.2 µM | M19-MEL 18.2 µM | MOLT-4 12.4 µM | Malme-3M 19.3 µM | NCI-H226 43.9 µM | NCI-H23 47.5 µM | NCI-H460 22.3 µM | OVCAR-4 38.2 µM | OVCAR-5 > 100 µM | OVCAR-8 28.5 µM | RPMI-8226 2.75 µM | RXF 393 16.7 µM | RXF 631 29.4 µM | SF-268 21.1 µM | SF-295 29 µM | SF-539 18.9 µM | SK-MEL-28 18.4 µM | SK-MEL-2 20 µM | SK-MEL-5 16.6 µM | SK-OV-3 > 100 µM | SN12C 17 µM | SNB-19 27.6 µM | SNB-75 24.4 µM | SNB-78 32.2 µM | SR 14.2 µM | SW-620 24.8 µM | TK-10 40.6 µM | U-251 18.2 µM | UACC-257 19.8 µM | UACC-62 17.5 µM | UO-31 17.7 µM | XF498 20.1 µM
21.1 µM: HCT-15

O=C1CN=C(C[N+](=O)[O-])c2ccccc21
> 100 µM: HCT-15
inactive: 786-0 > 100 µM | A498 > 100 µM | A549 > 100 µM | ACHN > 100 µM | CAKI-1 > 100 µM | COLO 205 > 100 µM | DLD-1 > 100 µM | DMS-114 > 100 µM | DMS-273 > 100 µM | EKVX > 100 µM | HCT-116 > 100 µM | HL-60 > 100 µM | HOP-18 > 100 µM | HOP-62 > 100 µM | HOP-92 > 100 µM | HT-29 > 100 µM | IGROV-1 > 100 µM | K562 > 100 µM | KM-20L2 > 100 µM | KM12 > 100 µM | LXFL 529 > 100 µM | M14 > 100 µM | MOLT-4 > 100 µM | Malme-3M > 100 µM | NCI-H226 > 100 µM | NCI-H23 > 100 µM | NCI-H460 > 100 µM | NCI-H522 > 100 µM | OVCAR-3 > 100 µM | OVCAR-4 > 100 µM | OVCAR-5 > 100 µM | OVCAR-8 > 100 µM | RPMI-8226 > 100 µM | RXF 631 > 100 µM | SF-268 > 100 µM | SF-295 > 100 µM | SF-539 > 100 µM | SK-MEL-28 > 100 µM | SK-MEL-2 > 100 µM | SK-MEL-5 > 100 µM | SK-OV-3 > 100 µM | SN12C > 100 µM | SNB-19 > 100 µM | SNB-75 > 100 µM | SNB-78 > 100 µM | SR > 100 µM | SW-620 > 100 µM | U-251 > 100 µM | UACC-257 > 100 µM | UO-31 > 100 µM

COC(=O)c1sc(=O)n(-c2ccccc2)c1SCc1ccccc1
inactive: 786-0 > 100 µM | A549 > 100 µM | ACHN > 100 µM | CCRF-CEM > 100 µM | COLO 205 > 100 µM | DLD-1 > 100 µM | DMS-273 > 100 µM | EKVX > 100 µM | HCC 2998 > 100 µM | HCT-116 > 100 µM | HL-60 > 100 µM | HOP-18 > 100 µM | HOP-62 > 100 µM | HOP-92 30.1 µM | HT-29 > 100 µM | IGROV-1 > 100 µM | K562 > 100 µM | KM-20L2 > 100 µM | KM12 > 100 µM | LOX IMVI > 100 µM | LXFL 529 > 100 µM | M14 > 100 µM | M19-MEL > 100 µM | MOLT-4 > 100 µM | Malme-3M > 100 µM | NCI-H226 > 100 µM | NCI-H23 > 100 µM | NCI-H460 > 100 µM | NCI-H522 > 100 µM | OVCAR-3 > 100 µM | OVCAR-4 > 100 µM | OVCAR-5 > 100 µM | OVCAR-8 > 100 µM | RPMI-8226 > 100 µM | RXF 393 > 100 µM | RXF 631 > 100 µM | SF-295 > 100 µM | SF-539 > 100 µM | SK-MEL-28 > 100 µM | SK-MEL-2 > 100 µM | SK-MEL-5 > 100 µM | SK-OV-3 > 100 µM | SN12C > 100 µM | SNB-19 > 100 µM | SNB-75 > 100 µM | SR > 100 µM | SW-620 > 100 µM | TK-10 > 100 µM | U-251 > 100 µM | UACC-257 > 100 µM | UACC-62 > 100 µM | UO-31 > 100 µM | XF498 > 100 µM
> 100 µM: HCT-15

Cc1cc2c(C(C)C)c(O)c(O)c(C=O)c2c(O)c1-c1c(C)cc2c(C(C)C)c(O)c(O)c(C=O)c2c1O [GOSSYPOL]
3.52 µM: HCT-15
inactive: A498 4.35 µM | A549 2.98 µM | ACHN 3.02 µM | CAKI-1 4.14 µM | COLO 205 2.63 µM | DLD-1 3.84 µM | DMS-114 2.58 µM | DMS-273 4.4 µM | EKVX 2.15 µM | HOP-18 3.69 µM | K562 3.08 µM | KM-20L2 3.33 µM | KM12 1.97 µM | LXFL 529 2.74 µM | M19-MEL 3.34 µM | MOLT-4 1.91 µM | Malme-3M 5.46 µM | OVCAR-3 3.24 µM | RPMI-8226 2.49 µM | RXF 631 5.32 µM | SF-295 2.37 µM | SK-MEL-28 4.66 µM | SN12C 5.09 µM | SNB-19 3.86 µM | SNB-78 5.14 µM | SW-620 4.59 µM | U-251 2.52 µM | UACC-62 2.36 µM | XF498 2.26 µM
